In brackets after ≈: the same amount, converted by molar mass. Where only a bound is given, the exact number is not on record here.

For the data set the following is noted: buffer; pH 7.4; 200.0 µM.
On to `Cc1ccccc1Nc1c(-c2cccnc2)nc2ccccn12`, for which the kinetic solubility (commonly the concentration staying in solution when a stock, usually in DMSO, is diluted into the medium) amounted to 17.6 µg/mL (≈ 58.6 µM).
Compound `CC(C)=NN1C(c2nonc2N)=NOC1(C)C` showed a kinetic solubility greater than 35.7 µg/mL.
For the compound `CN(C)CCC(=O)c1ccc(F)cc1.Cl`, the solubility (kinetic) was greater than 34.8 µg/mL.
The compound `CCOC(=O)c1c2c3c(cccc3[nH]c1=O)C(=O)c1ccccc1-2` had a solubility (kinetic) of less than 0.7 µg/mL.
For `COc1ccc(OC)c(CNS(=O)(=O)c2cn(C)cn2)c1` the value was 46.5 µg/mL (≈ 149 µM); for `CCOc1ccc(S(=O)(=O)NC(Cc2cnc[nH]2)C(=O)O)cc1` (configuration not stated), 25.8 µg/mL (≈ 76 µM).
On to `O=C(O)CC1c2ccccc2CCN1S(=O)(=O)c1ccccc1` (configuration not stated), for which the kinetic solubility was greater than 49.7 µg/mL.
Turning to `Cc1ccc(S(=O)(=O)NC2CC(C)(C)NC(C)(C)C2)cc1`, the solubility (kinetic) worked out at 40.5 µg/mL (≈ 130 µM).
For `CN1CCc2c(sc3c2C(=O)NC(/C=C\c2ccccc2)N3)C1` (configuration not stated) the value was 44.6 µg/mL (≈ 137 µM); for `O=C(NCc1cccnc1)Nc1ccc2c(c1)OCO2`, greater than 40.7 µg/mL.
In turn, `O=C(Nc1cccs1)N1CCN(c2ncccn2)CC1` showed a kinetic solubility greater than 43.4 µg/mL.
Turning to `Cc1ccc(NC(=O)COc2ccc(Br)cc2CO)cc1S(=O)(=O)N1CCOCC1`, the solubility (kinetic) was 21.1 µg/mL (≈ 42.3 µM).
For the compound `O=C(O)c1ccccc1C(=O)Nc1ccc(Oc2cccc(C(F)(F)F)c2)nc1`, the solubility (kinetic) is 60.2 µg/mL (≈ 150 µM).
The figure for `O=[N+]([O-])c1cccnc1N1CCN(c2ccccc2F)CC1` is 9.6 µg/mL (≈ 31.8 µM).
In turn, `O=C(COC(=O)c1ccc2ccccc2n1)NC1CCCCC1` displayed a solubility (kinetic) of 8.5 µg/mL (≈ 27.2 µM).
For the compound `O=C(O)c1ccc(NC(=O)C2C3CCC(O3)C2C(=O)O)cc1` (configuration not stated), the solubility (kinetic) is greater than 45.8 µg/mL.
Regarding `Cc1cccc(C)c1NC(=O)C(C)N1CCCC1` (configuration not stated), the solubility (kinetic) is greater than 37 µg/mL.
The compound `Cc1ccc2[nH]cc(S(=O)(=O)c3ccc(C)c(C)c3)c(=O)c2c1` showed a kinetic solubility of less than 0.7 µg/mL.
The figure for `CCOc1ccc(-c2cn3ccccc3n2)cc1` is 18.1 µg/mL (≈ 76 µM).
In the case of `Cc1ccc(-n2cnc3sc(C)c(C)c3c2=O)cc1`, the kinetic solubility amounted to 0.8 µg/mL (≈ 2.96 µM).
`Cn1c(=O)c([N+](=O)[O-])c(-n2ccnc2)c2ccccc21` showed a kinetic solubility of 37.4 µg/mL (≈ 138 µM).
Regarding `Cc1noc(C)c1CN1C(=O)c2ccccc2C1=O`, the kinetic solubility came out at 30.1 µg/mL (≈ 117 µM).
`Cc1noc(C)c1C(=O)OCC(=O)NCc1ccc(Cl)cc1` yielded a kinetic solubility of 15.6 µg/mL (≈ 48.3 µM).
Turning to `COC(=O)c1sccc1NC(=S)OC`, the kinetic solubility is 6.1 µg/mL (≈ 26.4 µM).
Compound `CC(SC1=NCCN1S(C)(=O)=O)c1ccccc1` (configuration not stated) registered a kinetic solubility of 42.5 µg/mL (≈ 149 µM).
The figure for `COc1ccc(N2C(=O)C(F)(F)C2c2ccccc2F)cc1` (configuration not stated) is 0.8 µg/mL (≈ 2.6 µM).
The compound `Cc1ccc(NC(=S)N(Cc2ccccc2)Cc2cccs2)c(C)c1` displayed a kinetic solubility of 0.8 µg/mL (≈ 2.18 µM).
`CN1C(=S)SC(C)(C)C1N(O)C(=O)Nc1ccc(Cl)cc1` (configuration not stated) displayed a solubility (kinetic) of 4.2 µg/mL (≈ 12.1 µM).
With `Cc1ccc(C2C(C(=O)c3ccco3)=C(O)C(=O)N2c2ncccn2)cc1` (configuration not stated), the kinetic solubility was greater than 54.2 µg/mL.
Take `Cc1cc(NC(=O)c2ccc(NC(=O)C3CC3)cc2)no1`: the solubility (kinetic) came out at 8.8 µg/mL (≈ 30.8 µM).
`N#Cc1ccc(C(=O)NC2=NCCS2)cc1`: the kinetic solubility came to 21.8 µg/mL (≈ 94.3 µM).
Take `O=C(CNC(=O)[C@@H]1Cc2ccccc2CN1)NCc1ccco1`: the kinetic solubility was greater than 47 µg/mL.
`CC(Nc1nc(=S)nc(Nc2ccc(F)cc2)[nH]1)c1ccccc1` (configuration not stated) yielded a solubility (kinetic) of 0.6 µg/mL (≈ 1.76 µM).
`O[C@@H]1CN(Cc2ccccc2Cl)CC[C@H]1N1CCOCC1` gave a solubility (kinetic) of 39.9 µg/mL (≈ 128 µM).
Compound `CC(NC1=NCCS1)c1ccccc1` (configuration not stated) yielded a kinetic solubility of 30.4 µg/mL (≈ 147 µM).
For `c1ccc(-c2csc(-c3cccnc3)n2)cc1`, the kinetic solubility was determined as 8.5 µg/mL (≈ 35.7 µM).
The figure for `O=S(=O)(NCc1ccc2c(c1)OCO2)c1ccc(F)c(F)c1` is 47.7 µg/mL (≈ 146 µM).
`CCOC(=O)COc1ccccc1/C=C1\NC(=O)NC1=O` displayed a kinetic solubility of 33 µg/mL (≈ 114 µM).
As to `O=S(=O)(CCN1CCSCC1)c1ccccc1`, the solubility (kinetic) came out at 34.7 µg/mL (≈ 128 µM).
For `COc1ccc(CNC(=O)N2CCc3ccccc3C2)cc1`, the kinetic solubility was greater than 44.5 µg/mL.
In turn, `CCOC(=O)Cn1nc(C)n(-c2c(C)cccc2C)c1=O` showed a kinetic solubility greater than 43.4 µg/mL.
On to `CN(C(=O)c1ccncc1)C1CCCCC1`, for which the kinetic solubility was greater than 32.7 µg/mL.
Turning to `COc1ccc(-c2ncncc2-c2ccc(Cl)cc2)c(O)c1`, the solubility (kinetic) is 1.1 µg/mL (≈ 3.52 µM).
With `Cc1ccc(S(=O)(=O)N2CCC3(CC2)OCCO3)c(C)c1`, the kinetic solubility was greater than 46.7 µg/mL.
Take `CCOC(=O)c1[nH]c(C)c(C(=O)OC)c1C`: the kinetic solubility is greater than 33.8 µg/mL.
The figure for `O=C(O)C(NS(=O)(=O)c1ccccc1)C(O)c1ccccc1` (configuration not stated) is 33.9 µg/mL (≈ 105 µM); for `Cc1noc2ncnc(SCc3ccc(C(F)(F)F)cc3)c12` it is 1.1 µg/mL (≈ 3.38 µM).
As for `O=C(Nc1ccc(Br)cc1)C1CCCC1`, the kinetic solubility amounted to 7 µg/mL (≈ 26.1 µM).
As to `CC(C)N(C)CCOC(=O)C1COc2ccccc2O1.Cl` (configuration not stated), the solubility (kinetic) was greater than 47.4 µg/mL.
Compound `NS(=O)(=O)c1ccc(CCNC(=O)COC(=O)c2ccc([N+](=O)[O-])o2)cc1` yielded a solubility (kinetic) greater than 59.6 µg/mL.
Take `Cc1ccnc(NC(=O)CCCc2c[nH]c3ccccc23)c1`: the solubility (kinetic) stood at 4.3 µg/mL (≈ 14.7 µM).
For the compound `COc1ccccc1NS(=O)(=O)c1ccc(C(=O)N2CCN(c3ccccn3)CC2)cc1`, the solubility (kinetic) amounted to 53.9 µg/mL (≈ 119 µM).

The values above are taken from PubChem BioAssay AID1996.
